Measured values taken from ChEMBL document CHEMBL1139518, “A new structural motif for mu-opioid antagonists” (J Med Chem, 2005).
Where a SMILES comes first, the peptide text is derived from it.

Legend:
Mus musculus [1] = species: Mus musculus; assay: Atagonist activity of compound against DPDPE-induced electrically evoked contractions of mouse vas deferens; type: functional
Mu-type opioid receptor = Mu-type opioid receptor (Rattus norvegicus, UniProt P33535); assay: Inhibition of [3H]naloxone binding to rat Opioid receptor mu
Mu-type opioid receptor, sequence (P33535 whole entry): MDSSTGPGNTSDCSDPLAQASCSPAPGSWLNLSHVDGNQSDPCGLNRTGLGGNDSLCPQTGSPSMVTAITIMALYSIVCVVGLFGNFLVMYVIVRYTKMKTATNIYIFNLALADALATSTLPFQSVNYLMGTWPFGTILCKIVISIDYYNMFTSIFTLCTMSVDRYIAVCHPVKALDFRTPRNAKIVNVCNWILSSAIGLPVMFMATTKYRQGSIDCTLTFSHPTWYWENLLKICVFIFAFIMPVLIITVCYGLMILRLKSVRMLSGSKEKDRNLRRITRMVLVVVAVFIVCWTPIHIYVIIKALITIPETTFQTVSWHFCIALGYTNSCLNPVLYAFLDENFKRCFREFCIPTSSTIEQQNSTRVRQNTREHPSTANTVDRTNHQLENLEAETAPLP

Mus musculus [2] = species: Mus musculus; assay: Antagonist activity of compound against DPDPE-induced electrically evoked contractions of mouse vas deferens; type: functional
[3] = Antagonist activity of compound against TAPP-induced electrically evoked contractions of guinea pig ileum; type: functional, Cavia porcellus
[4] = target: Delta-type opioid receptor (Rattus norvegicus, UniProt P33533); assay: Inhibition of [3H][Ile5,6]-deltorphin I binding to rat Opioid receptor delta
Delta-type opioid receptor, sequence (P33533 whole entry): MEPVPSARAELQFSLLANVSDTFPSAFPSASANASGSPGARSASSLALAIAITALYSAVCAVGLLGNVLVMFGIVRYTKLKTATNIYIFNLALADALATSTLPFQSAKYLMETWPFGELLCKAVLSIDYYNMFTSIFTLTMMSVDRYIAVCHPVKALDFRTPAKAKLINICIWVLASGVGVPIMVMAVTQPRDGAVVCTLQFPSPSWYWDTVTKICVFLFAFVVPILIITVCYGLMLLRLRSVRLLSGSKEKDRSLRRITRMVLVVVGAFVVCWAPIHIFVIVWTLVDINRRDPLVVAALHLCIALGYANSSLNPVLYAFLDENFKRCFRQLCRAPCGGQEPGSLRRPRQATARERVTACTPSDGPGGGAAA

[5] = Ratio of antagonist activity against TAPP-induced contractions of guinea pig ileum to that of DPDPE-induced contractions of mouse vas deferens; type: functional, Cavia porcellus

Row | SMILES | Ke (Mus musculus [1]) [nM] | Ki (Mu-type opioid receptor) [µM] | Ke (Mus musculus [2]) [nM] | Ke [3] [nM] | Ki [4] [µM] | Ratio [5]
1 | N[C@@H](Cc1ccc(O)cc1)C(=O)N1Cc2ccccc2C[C@H]1C(=O)N[C@@H](Cc1ccccc1)C(=O)N[C@@H](Cc1ccccc1)C(=O)O (HELM PEPTIDE1{Y.[Tic].F.F}$$$$V2.0) | 4.8 | – | – | – | – | –
2 | Cc1cc(O)cc(C)c1C[C@H](N)CN1Cc2ccccc2C[C@H](NC(=O)Cc2ccccc2)C1=O | – | 0.0033 | 318 | 38.6 | 0.0258 | 0.125
3 | Cc1cc(O)cc(C)c1C[C@@H](N)CN1Cc2ccccc2C[C@H](NC(=O)Cc2ccccc2)C1=O | – | 0.0151 | 185 | 207 | 0.684 | 1.666
4 | Cc1cc(O)cc(C)c1C[C@@H](N)CN1Cc2ccccc2C[C@@H](NC(=O)Cc2ccccc2)C1=O | – | 0.0417 | 1440 | 85.1 | 2.9 | 0.058
5 | Cc1cc(O)cc(C)c1C[C@H](N)CN1Cc2ccccc2C[C@@H](NC(=O)Cc2ccccc2)C1=O | – | 0.0235 | 1590 | 823 | 1.1 | 0.5
